Measured values reported in ChEMBL document CHEMBL4680265, “Anti-tubulin agent vinorelbine inhibits metastasis of cancer cells by regulating epithelial-mesenchymal transition” (Eur J Med Chem, 2020).
Calls of active or inactive are those of the source. The rule behind the calls is not given here.

Key:
NCI-H1975 [1] = test: Cytotoxicity against human NCI-H1975 cells assessed as reduction in cell viability incubated for 48 hrs by MTT assay; format: functional, cell-based; conditions: NCI-H1975, 48 h
HepG2 [2] = test: Cytotoxicity against human HepG2 cells assessed as reduction in cell viability incubated for 48 hrs by MTT assay; format: functional, cell-based; conditions: HepG2, 48 h
HCT-116 [3] = test: Cytotoxicity against human HCT-116 cells assessed as reduction in cell viability incubated for 48 hrs by MTT assay; format: functional, cell-based; conditions: HCT-116, 48 h
NCI-H1975 [4] = test: Cytotoxicity against human NCI-H1975 cells assessed as effect on cell morphology incubated for 48 hrs by DAPI staining based fluorescence microscopy; format: functional; conditions: dose 1-100 nM
HepG2 [5] = test: Cytotoxicity against human HepG2 cells assessed as effect on cell morphology incubated for 48 hrs by DAPI staining based fluorescence microscopy; format: functional; conditions: dose 0.1-10 µM
HCT-116 [6] = test: Cytotoxicity against human HCT-116 cells assessed as effect on cell morphology incubated for 48 hrs by DAPI staining based fluorescence microscopy; format: functional; conditions: dose 0.01-1 µM
NCI-H1975 [7] = test: Inhibition of colony formation in human NCI-H1975 cells at 1 to 100 nM incubated for 3 to 4 days by crystal violet staining based assay; format: functional, cell-based; conditions: dose 1-100 nM, time 3-4 day
HepG2 [8] = test: Inhibition of colony formation in human HepG2 cells at 0.1 to 10 uM incubated for 3 to 4 days by crystal violet staining based assay; format: functional, cell-based; conditions: dose 0.1-10 µM, time 3-4 day
HCT-116 [9] = test: Inhibition of colony formation in human HCT-116 cells at 0.01 to 1 uM incubated for 3 to 4 days by crystal violet staining based assay; format: functional, cell-based; conditions: dose 0.01-1 µM, time 3-4 day
NCI-H1975 [10] = test: Induction of cell cycle arrest in human NCI-H1975 cells assessed as increase in G2/M phase accumulation at 1 nM incubated for 24 hrs by propidium iodide staining based flow cytometry analysis relative to control; format: functional
NCI-H1975 [11] = test: Induction of cell cycle arrest in human NCI-H1975 cells assessed as increase in G2/M phase accumulation at 10 nM incubated for 24 hrs by propidium iodide staining based flow cytometry analysis relative to control; format: functional
NCI-H1975 [12] = test: Induction of cell cycle arrest in human NCI-H1975 cells assessed as increase in G2/M phase accumulation at 100 nM incubated for 24 hrs by propidium iodide staining based flow cytometry analysis relative to control; format: functional
HepG2 [13] = test: Induction of cell cycle arrest in human HepG2 cells assessed as increase in G2/M phase accumulation at 0.1 to 10 uM incubated for 24 hrs by propidium iodide staining based flow cytometry analysis; format: functional; conditions: dose 0.1-10 µM
HCT-116 [14] = test: Induction of cell cycle arrest in human HCT-116 cells assessed as increase in G2/M phase accumulation at 0.01 to 1 uM incubated for 24 hrs by propidium iodide staining based flow cytometry analysis; format: functional; conditions: dose 0.01-1 µM
NCI-H1975 [15] = test: Induction of cell cycle arrest in human NCI-H1975 cells assessed as decrease in cyclin B1 level at 1 to 100 nM incubated for 24 hrs by Western blot analysis; format: functional, cell-based; conditions: dose 1-100 nM
HepG2 [16] = test: Induction of cell cycle arrest in human HepG2 cells assessed as decrease in cyclin B1 level at 0.1 to 10 uM incubated for 24 hrs by Western blot analysis; format: functional, cell-based; conditions: dose 0.1-10 µM
HCT-116 [17] = test: Induction of cell cycle arrest in human HCT-116 cells assessed as decrease in cyclin B1 level at 0.01 to 1 uM incubated for 24 hrs by Western blot analysis; format: functional, cell-based; conditions: dose 0.01-1 µM
NCI-H1975 [18] = test: Induction of apoptosis in human NCI-H1975 cells assessed as increase in early apoptotic cells at 1 to 100 nM incubated for 48 hrs by annexin V-FITC and PI staining based flow cytometry analysis; format: functional, cell-based; conditions: dose 1-100 nM
NCI-H1975 [19] = test: Induction of apoptosis in human NCI-H1975 cells assessed as increase in late apoptotic cells at 1 to 100 nM incubated for 48 hrs by annexin V-FITC and PI staining based flow cytometry analysis; format: functional, cell-based; conditions: dose 1-100 nM
HepG2 [20] = test: Induction of apoptosis in human HepG2 cells assessed as increase in late apoptotic cells at 0.1 to 10 uM incubated for 48 hrs by annexin V-FITC and PI staining based flow cytometry analysis; format: functional, cell-based; conditions: dose 0.1-10 µM
HCT-116 [21] = test: Induction of apoptosis in human HCT-116 cells assessed as increase in late apoptotic cells at 0.01 to 1 uM incubated for 48 hrs by annexin V-FITC and PI staining based flow cytometry analysis; format: functional, cell-based; conditions: dose 0.01-1 µM
NCI-H1975 [22] = test: Induction of apoptosis in human NCI-H1975 cells assessed as decrease in Bcl-2 expression at 1 to 100 nM incubated for 48 hrs by Western blot analysis; format: functional, cell-based; conditions: dose 1-100 nM
NCI-H1975 [23] = test: Induction of apoptosis in human NCI-H1975 cells assessed as decrease in Bcl-xl expression at 1 to 100 nM incubated for 48 hrs by Western blot analysis; format: functional, cell-based; conditions: dose 1-100 nM
NCI-H1975 [24] = test: Induction of apoptosis in human NCI-H1975 cells assessed as increase in Bax expression at 1 to 100 nM incubated for 48 hrs by Western blot analysis; format: functional, cell-based; conditions: dose 1-100 nM
HepG2 [25] = test: Induction of apoptosis in human HepG2 cells assessed as decrease in Bcl-2 expression at 0.1 to 10 uM incubated for 48 hrs by Western blot analysis; format: functional, cell-based; conditions: dose 0.1-10 µM
HepG2 [26] = test: Induction of apoptosis in human HepG2 cells assessed as decrease in Bcl-xl expression at 0.1 to 10 uM incubated for 48 hrs by Western blot analysis; format: functional, cell-based; conditions: dose 0.1-10 µM
HepG2 [27] = test: Induction of apoptosis in human HepG2 cells assessed as increase in Bax expression at 0.1 to 10 uM incubated for 48 hrs by Western blot analysis; format: functional, cell-based; conditions: dose 0.1-10 µM
HCT-116 [28] = test: Induction of apoptosis in human HCT-116 cells assessed as decrease in Bcl-2 expression at 0.01 to 1 uM incubated for 48 hrs by Western blot analysis; format: functional, cell-based; conditions: dose 0.01-1 µM
HCT-116 [29] = test: Induction of apoptosis in human HCT-116 cells assessed as decrease in Bcl-xl expression at 0.01 to 1 uM incubated for 48 hrs by Western blot analysis; format: functional, cell-based; conditions: dose 0.01-1 µM
HCT-116 [30] = test: Induction of apoptosis in human HCT-116 cells assessed as increase in Bax expression at 0.01 to 1 uM incubated for 48 hrs by Western blot analysis; format: functional, cell-based; conditions: dose 0.01-1 µM

CCC1=C[C@@H]2CN(C1)Cc1c([nH]c3ccccc13)[C@@](C(=O)OC)(c1cc3c(cc1OC)N(C)[C@H]1[C@@](O)(C(=O)OC)[C@H](OC(C)=O)[C@]4(CC)C=CCN5CC[C@]31[C@@H]54)C2 [VINORELBINE]
IC50 (NCI-H1975 [1]): 0.008 µM
IC50 (HepG2 [2]): 0.11 µM
IC50 (HCT-116 [3]): 0.0149 µM
Activity (NCI-H1975 [4]): Dose-dependent effect
Activity (HepG2 [5]): Dose-dependent effect
Activity (HCT-116 [6]): Dose-dependent effect
inhibition (NCI-H1975 [7]): Active
inhibition (HepG2 [8]): Active
inhibition (HCT-116 [9]): Active
Activity (NCI-H1975 [10]): 17.39%
Activity (NCI-H1975 [11]): 34.31%
Activity (NCI-H1975 [12]): 51.85%
Activity (HepG2 [13]): Active
Activity (HCT-116 [14]): Active
Activity (NCI-H1975 [15]): Active
Activity (HepG2 [16]): Active
Activity (HCT-116 [17]): inactive
Activity (NCI-H1975 [18]): Active
Activity (NCI-H1975 [19]): Active
Activity (HepG2 [20]): Active
Activity (HCT-116 [21]): Active
Activity (NCI-H1975 [22]): Active
Activity (NCI-H1975 [23]): Active
Activity (NCI-H1975 [24]): Active
Activity (HepG2 [25]): Active
Activity (HepG2 [26]): Active
Activity (HepG2 [27]): Active
Activity (HCT-116 [28]): Active
Activity (HCT-116 [29]): Active
Activity (HCT-116 [30]): Active
